# Structures can show the parent of a compound that is named as a salt. Where two headings read alike, the source gives them in different places.
# Experiments:
# [1] = molecular target: T1, NR1/NR2B ionotropic receptors encoded by the human GRIN1/GRIN2B genes, expressed in HEK293 cells (Homo sapiens, UniProt Q05586+Q13224); assay: Syncropatch automated patch clamp on NR1/NR2B receptors in HEK293 cells, antagonist mode (co-applied with 2 μM glutamate and 50 μM glycine); assay type: cell-based; details: for inhibits glutamate and glycine activation of NR1/NR2B receptors in vitro: PCA and SSC measurements, conclusion in words; for NR1/NR2B PCA antagonist HillSlope: co-applied with 2 μM glutamate and 50 μM glycine
# T1 sequence (Q13224 27-1484, other chains not shown): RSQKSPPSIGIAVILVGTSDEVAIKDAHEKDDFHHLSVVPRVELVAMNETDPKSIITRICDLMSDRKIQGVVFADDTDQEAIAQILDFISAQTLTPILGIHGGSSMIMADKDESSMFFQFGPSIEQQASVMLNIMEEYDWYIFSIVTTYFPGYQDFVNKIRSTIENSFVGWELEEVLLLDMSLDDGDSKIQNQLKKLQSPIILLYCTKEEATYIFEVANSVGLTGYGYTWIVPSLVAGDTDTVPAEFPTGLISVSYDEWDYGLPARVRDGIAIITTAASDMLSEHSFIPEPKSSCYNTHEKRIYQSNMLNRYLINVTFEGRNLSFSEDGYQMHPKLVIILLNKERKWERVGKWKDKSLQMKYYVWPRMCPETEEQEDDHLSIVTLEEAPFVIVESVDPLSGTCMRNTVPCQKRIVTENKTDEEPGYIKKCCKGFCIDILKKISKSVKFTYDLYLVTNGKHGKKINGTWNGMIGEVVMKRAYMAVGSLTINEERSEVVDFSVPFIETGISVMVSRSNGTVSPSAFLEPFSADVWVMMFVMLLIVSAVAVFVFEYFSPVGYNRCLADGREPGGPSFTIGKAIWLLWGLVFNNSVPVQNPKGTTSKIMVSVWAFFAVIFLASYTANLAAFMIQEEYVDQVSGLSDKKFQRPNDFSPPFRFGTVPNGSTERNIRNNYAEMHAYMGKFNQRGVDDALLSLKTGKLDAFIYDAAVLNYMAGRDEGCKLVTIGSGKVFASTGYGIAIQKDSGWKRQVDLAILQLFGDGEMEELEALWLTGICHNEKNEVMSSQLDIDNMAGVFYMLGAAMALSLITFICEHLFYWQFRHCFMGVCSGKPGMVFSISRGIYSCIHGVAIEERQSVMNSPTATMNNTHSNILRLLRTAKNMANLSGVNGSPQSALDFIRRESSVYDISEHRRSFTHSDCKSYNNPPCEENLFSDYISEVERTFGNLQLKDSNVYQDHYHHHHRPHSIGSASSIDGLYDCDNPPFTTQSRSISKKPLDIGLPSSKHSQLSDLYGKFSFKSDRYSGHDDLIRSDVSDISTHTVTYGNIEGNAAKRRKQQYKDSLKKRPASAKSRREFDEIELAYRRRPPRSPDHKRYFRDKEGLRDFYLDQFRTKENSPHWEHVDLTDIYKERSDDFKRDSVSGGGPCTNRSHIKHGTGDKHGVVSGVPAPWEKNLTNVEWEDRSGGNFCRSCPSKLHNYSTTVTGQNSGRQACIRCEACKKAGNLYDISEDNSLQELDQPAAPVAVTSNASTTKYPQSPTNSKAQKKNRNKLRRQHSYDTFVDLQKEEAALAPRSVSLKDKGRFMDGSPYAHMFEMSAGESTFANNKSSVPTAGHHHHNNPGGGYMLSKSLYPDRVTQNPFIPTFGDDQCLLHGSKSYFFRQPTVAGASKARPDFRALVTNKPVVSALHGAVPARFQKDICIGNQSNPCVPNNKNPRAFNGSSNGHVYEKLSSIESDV
# Procedure: (§1) The following patch clamp study investigates these effects on NR1/NR2B ionotropic receptors encoded by the human GRIN1/GRIN2B genes, expressed in HEK293 cells. Compounds were evaluated for functional effects on these ion channel receptors.
# (§2) The assay was carried out using an HTS electrophysiology-based approach with the Syncropatch 384pe automated patch clamp system (Nanion), while using HEK293 cells that have been transfected with human GRIN1/GRIN2B genes to express NR1/NR2B ionotropic receptors
# (§3) HEK293 cells were transfected with the appropriate ion channel or receptor cDNA(s) encoding NR1 and NR2B. Stable transfectants were selected using the G418 and Zeocin-resistance genes incorporated into the expression plasmid. Selection pressure was maintained with G418 and Zeocin in the culture medium. Cells were cultured in Dulbecco's Modified Eagle Medium/Nutrient Mixture F-12 (D-MEM/F-12) supplemented with 10% fetal bovine serum, 100 U/ml penicillin G sodium, 100 ug/mL streptomycin sulfate, 100 ug/mL Zeocin, 5 ug/mL blasticidin and 500 ug/mL G418.
# (§4) Before testing, cells in culture dishes were washed twice with DPBS solution. Immediately before testing, the cells were washed in HB-PS containing 10 mM CaCl2 to improve sealing.
# (§5) Compounds were evaluated in 8-point concentration-response format (4 replicate wells/concentration). The compound formulations were loaded in e.g. a 384-well compound plate and placed in the Syncropatch plate well.
# (§6) The agonist positive control (L-glutamate) was applied at eight (8) concentrations (0.03-100 μM; n=4, where n=the number of replicates) together with 50 μM glycine.
# (§7) 2× concentration of test compounds and antagonist control was pre-applied 2 minutes before application of L-glutamate/glycine mixed with 1× concentration of test compound. Glutamate and glycine was applied to naive cells (n=4, where n=the number of replicate wells/concentration) via a multi-channel pipettor.
# (§8) • a) Intracellular solution (mM): 50 mM CsCl, 90 mM CsF, 2 mM MgCl2, 5 mM EGTA, 10 mM HEPES. Adjust to pH 7.2 with CsOH. This solution was prepared in batches and stored refrigerated.
# (§9) • a) Extracellular buffer was loaded into the multi holes plate wells (40 μL per well).
# (§10) Activation was calculated in two ways based on the following measurements: • 1. peak current amplitudes, and • 2. current amplitude 4-5 seconds after agonist addition.
# (§11) Data acquisition was performed via the […] and data was analyzed using Microsoft Excel™ (Microsoft™ Corp., Redmond, WA). Concentration-response data was filled to a Hill equation of the following form: […]
# (§12) where Base is the response in the absence of test article (vehicle treatment), Max is the maximum response at high concentrations, xhalf is the EC50, or IC50, the concentration of test compound producing either half-maximal activation or inhibition, and rate is the Hill coefficient. Nonlinear least squares fits were made assuming a simple binding model. If appropriate, fits were weighted by the standard deviation. No assumptions about the fit parameters were made; the fit parameters were determined by algorithm. Raw reduced data was analyzed using Microsoft Excel Office 365 ProPlus (Microsoft™ Corp., Redmond, WA) and XLfit (Excel addon, Copyright© IDBS 2016).
# Antagonist activity of test articles was examined after stimulation of receptors with 2 μM glutamate and 50 μM glycine in the presence of increasing concentrations of test articles. Two measurements were performed, first was a peak current amplitude and second was a steady state current between 4th and 6th seconds following agonist application.
# as §1
# HEK293 cells were transfected with the appropriate ion channel or receptor cDNA(s) encoding NR1 and NR2B.
# [2] = molecular target: T1, NR1/NR2B ionotropic receptors encoded by the human GRIN1/GRIN2B genes, expressed in HEK293 cells; assay: Syncropatch automated patch clamp on NR1/NR2B receptors in HEK293 cells, agonist mode; assay type: cell-based; details: for EC50 / NR1/NR2B PCA agonist EMAX: plus 50 μM glycine; for NR1/NR2B PCA agonist EMAX: relative to current produced by 100 μM glutamate (EMAX set as 100%)
# Procedure: as §1, §2, §3, §4, §5, §6, §7, §8, §9, §10, §11, §12, §1
# HEK293 cells were transfected with the appropriate ion channel or receptor cDNA(s) encoding NR1 and NR2B. Stable transfectants were selected using the G418 and Zeocin-resistance genes incorporated into the expression plasmid. Selection pressure was maintained with G418 and Zeocin in the culture medium.
# [3] = system: cortical damage in a model of permanent focal ischemia; details: cited from earlier work
# [4] = molecular target: NR1C and NR2B receptors over NR1C+NR2A receptors (Homo sapiens, UniProt Q05586+Q13224); details: cited from earlier work
# NR1C and NR2B receptors over NR1C+NR2A receptors, sequence (Q13224 27-1484, other chains not shown): as above
# [5] = steady state current amplitude (SSC) table
structure (smiles),measurement,setting,value
CC(C(O)c1ccc(O)cc1)N1CCC(Cc2ccccc2)CC1 (centres unmarked) [Ifenprodil pamoate],inhibits glutamate and glycine activation of NR1/NR2B receptors in vitro,[1],comparable to ifenprodil tartrate
same,NR1/NR2B PCA antagonist HillSlope,"[1]; peak current amplitude (PCA), listed as pamoate",1.59
same,NR1/NR2B PCA antagonist HillSlope,"[1]; steady state current amplitude (SSC) table, listed as pamoate",0.77
C[C@@H]([C@H](O)c1ccc(O)cc1)N1CCC(Cc2ccccc2)CC1 [Ifenprodil oleate],inhibits glutamate and glycine activation of NR1/NR2B receptors in vitro,[1],comparable to ifenprodil tartrate
same,NR1/NR2B PCA antagonist HillSlope,[1]; peak current amplitude (PCA),0.79
same,NR1/NR2B PCA antagonist HillSlope,[1]; [5],0.86
CC(C(O)c1ccc(O)cc1)N1CCC(Cc2ccccc2)CC1.O=C(O)c1ccccc1 (centres unmarked) [Ifenprodil benzoate],inhibits glutamate and glycine activation of NR1/NR2B receptors in vitro,[1],comparable to ifenprodil tartrate
same,NR1/NR2B PCA antagonist HillSlope,[1]; peak current amplitude (PCA),1.39
same,NR1/NR2B PCA antagonist HillSlope,[1]; [5],1.25
"N[C@@H](CCC(=O)O)C(=O)[O-].O.[Na+] [Glutamate, L-Glutamic acid monosodium salt monohydrate]",NR1/NR2B PCA agonist HillSlope,[2]; peak current amplitude (PCA),−0.86
same,EC50,[2]; peak current amplitude (PCA),3.03 µM
same,NR1/NR2B PCA agonist EMAX,[2]; peak current amplitude (PCA),100.00%
same,NR1/NR2B PCA agonist HillSlope,[2]; [5],−0.95
same,EC50,"[2]; steady state current amplitude (SSC) table, read-out: NR1/NR2B PCA agonist EC50",0.82 µM
same,NR1/NR2B PCA agonist EMAX,[2]; [5],100.00%
CC(C(O)c1ccc(O)cc1)N1CCC(Cc2ccccc2)CC1 (centres unmarked) [Ifenprodil nicotinate],NR1/NR2B PCA antagonist HillSlope,"[1]; peak current amplitude (PCA), listed as nicotinate",0.71
same,NR1/NR2B PCA antagonist HillSlope,"[1]; steady state current amplitude (SSC) table, listed as nicotinate",0.71
Cc1ccc(CC2(O)CCN(CCOc3ccc(O)cc3)CC2)cc1 [Ro 63-1908],neuroprotective effect against cortical damage,[3],dose-related neuroprotective effect
same,selectivity for the NR1C and NR2B receptors over NR1C+NR2A receptors,[4],"20,000 fold"
CC(C(O)c1ccc(O)cc1)N1CCC(Cc2ccccc2)CC1 (centres unmarked) [Ifenprodil fumarate],NR1/NR2B PCA antagonist HillSlope,"[1]; peak current amplitude (PCA), listed as fumarate",0.79
same,NR1/NR2B PCA antagonist HillSlope,"[1]; steady state current amplitude (SSC) table, listed as fumarate",0.61
"CC12CC3CC(C)(C1)CC(N)(C3)C2 [Memantine, memantine chloride, reference compound]",NR1/NR2B PCA antagonist HillSlope,[1]; peak current amplitude (PCA),1.12
same,NR1/NR2B PCA antagonist HillSlope,[1]; [5],1.08

# Reference: patent US20250009730A1 (priority 2021, published 2025)
